Patent US20090264342A1, “COMPOSITIONS AND METHODS FOR ANTIBIOTIC POTENTIATION AND DRUG DISCOVERY” (priority 2006, published 2009)

Legend:
strain E1 = experiment: Potentiation of gentamicin by mefloquine (MBC, MIC); type: cell-based
From the text: Several aminoglycoside (gentamicin) potentiator target genes identified in Example 34 are ATP synthases.

E. coli MG1655 = experiment: Hydroxyl radical formation (HPF dye, flow cytometry) in E. coli; type: cell-based; conditions: E. coli; 250 ng/mL norfloxacin, 5 μg/mL ampicillin, 5 μg/mL kanamycin; bacteriostatic drugs; 3 hours after addition
Description: Growth Conditions. In the experiments, the growth and survival of untreated exponential phase E. coli, or S. aureus, were compared to cultured treated with antibiotics at the above concentrations. E. coli cultures were treated with norfloxacin, kanamycin, ampicillin, rifamycin SV, chloramphenical, tetracycline, erythromycin, or spectinomycin, where appropriate, S. aureus cultures were treated with norfloxacin, vancomycin or chloramphenical, where appropriate.
Hydroxyl radical and DNA damage sensor experiments using the flow cytometer. To monitor the occurrence of DNA damage, the engineered DNA damage sensor was used, which responds to auto-cleavage of LexA by activating expression of gfpmut3b. All the drug treatments and the no-drug controls were collected with both the kanamycin- and ampicillin-resistant version of the plasmid, with the exception of the ampicillin treatment (kanamycin plasmid only) and the kanamycin treatment (ampicillin plasmid only). All data were collected using a Becton Dickinson FACSCalibur flow cytometer (Becton Dickinson, San Jose, Calif.) with a 488-nm argon laser and a 515- to 545-nm emission filter (FL1) at low flow rate. The following PMT voltage settings were used: E00 (FSC), 360 (SSC) and 700 (FL1). To detect hydroxyl radical formation, the fluorescent reporter dye, 3′-(p-hydroxyphenyl) fluorescein (HPF, Invitrogen, Carlsbad, Calif.) was used at a concentration of 5 μM (1:1000) dilution), which is oxidized by hydroxyl radicals with high specificity. The following PMT voltage settings were used: E00 (FSC), 360 (SSC) and 825 (FL 1). Calibrite beads (Becton Dickinson) were used for instrument calibration.
Flow data were processed and analyzed with MATLAB (MathWorks, Natick, Mass.) to construct figures. At least 50,000 cells were collected for each sample. In all experiments, cells were grown as described above. Samples were taken immediately before addition of drug (time zero), then every hour for 3 hours. At each timepoint, approximately […] were collected, washed once and resuspended in filtered 1×PBS, pH 7.2 (Fisher Scientific), and fluorescence was measured on the flow cytometer.
In the present study, the Applicants chose to investigate whether hydroxyl radical formation also contributes to antibiotic-induced cell death in bacteria. Using the dye hydroxyphenyl fluorescein, HPF, which is oxidized by hydroxyl radicals with high specificity, hydroxyl radical formation was first observed over a range of hydrogen peroxide concentrations known to induce hydroxyl radicals through the reduction of hydrogen peroxide by ferrous iron. In this manner, it was possible to establish the scale of hydroxyl radical formation detectable using this dye via flow cytometry.

[1] = test system: SOS response (LexA auto-cleavage) in E. coli; experiment: SOS induction, LexA-controlled GFP DNA damage sensor; type: cell-based; conditions: 5 μg/mL Amp, 5 μg/mL Kan, 25 ng/mL Nor; 3 hours after addition
Description: FIG. 37 is a set of two graphs showing SOS induction in E. coli by bactericidal antibiotics. Activation of the SOS response was monitored using an engineered sensor construct that employs the LexA repressor for control of Green Fluorescent Protein (GFP) expression. Shown are representative GFP histogram measurements taken 3 hours after addition of a, bactericidal antibiotics (5 μg/mL Amp, 5 μg/mL Kan, 25 ng/mL Nor). b, Log change in CFU/mL of ΔrecA E. coli following exposure to 5 μg/mL Kanamycin (open diamonds), 25 ng/mL Norfloxacin (open triangles), and 5 μg/mL Ampicillin (open circles). For comparison, CFU/mL are also shown for widltype E. coli exposed to 5 μg/mL Kanamycin (diamonds), 25 ng/mL Norfloxacin (triangles), and 5 μg/mL Ampicillin (circles), as well as a lower concentration of norfloxacin in these experiments to highlight the significant increase in killing in a recA knockout.
DNA damage sensor construction. The DNA sensor construct with ampicillin resistance was described previously (D. J. Dwyer et al., “Superoxide and hydroxyl radicals contribute to gyrase inhibitor-mediated cell death in E. coli”, 2007 accepted by Mol. Syst. Biol., which is incorporated herein by reference in its entirety).
Hydroxyl radical and DNA damage sensor experiments using the flow cytometer. […]
Hydroxyl radical are extremely toxic, and will readily damage membrane lipids, proteins and DNA. […]

E. coli H+ATPase = E. coli H+ATPase (Escherichia coli, UniProt P0AB98+P68699); conditions: cited from earlier work

In the case of OC(c1cc(C(F)(F)F)nc2c(C(F)(F)F)cccc12)C1CCCCN1 (centres unmarked) [Mefloquine], the “reduction of the MBC of gentamicin” value (strain E1; strain E1, Mefloquine 100 μg/mL) is reported as 6 fold and the “reduction of the MIC of gentamicin” value (strain E1; strain E1, Mefloquine 500 μg/mL) is reported as 2 fold.

In the case of CC1(C)S[C@@H]2[C@H](NC(=O)[C@H](N)c3ccccc3)C(=O)N2[C@H]1C(=O)O [ampicillin], the hydroxyl radical formation (E. coli MG1655) is reported as “induce hydroxyl radical formation” and the “SOS activity (LexA-driven GFP expression)” value [1] is reported as “induced the SOS response”.

For venturicidin, the “inhibition of ATP-driven proton transport and ATP hydrolysis” value (E. coli H+ATPase) is given as “strongly inhibited”.
